Tests used:
[1] = tested on: SkM; assay: Western blotting of SkM (respiratory complex subunits, PGC-1α, AMPK, ACC); assay type: in vivo, mice
Experimental: Tissues were homogenized in RIPA buffer (100 mM NaCl, 10 mM Tris, pH 7.4, 1% Triton X-100, 0.5% sodium deoxycholate, 0.1% SDS, 1 mM EDTA, 10% Glycerol) containing complete protease inhibitor cocktail (Roche) and phosphatase inhibitors (3 mM β-glycerophosphate, 1 mM sodium orthovanadate, 5 mM sodium fluoride) by bead-beating in a Precellys 24 at 4 °C. Extracts were centrifuged at 6500 rpm for 10 min at 4 °C. Supernatant was collected and protein concentrations determined with the Bicinchoninic acid (BCA) assay (Thermo Scientific). Protein lysates (15 μg) were resolved on SDS-PAGE, transferred to polyvinylidene difluoride (PVDF) membrane, and immunoblotted with antibodies against Complex I subunit NADH dehydrogenase (#ab110242, Abcam), Complex II succinate dehydrogenase subunit B (#ab14714, Abcam), Complex III subunit Core 2 Ubiquinol-cytochrome c reductase (#ab14745, Abcam), Complex IV Cytochrome c oxidase (#11967S, Cell Signaling Technology), Complex V ATP synthase α subunit (#ab14748, Abcam), PGC1α (#AB3242, Merck Millipore), AMPKα (#2532S, Cell Signaling Technology), phospho- AMPKα (Thr172) (#2535S, Cell Signaling Technology), ACC (#3662S, Cell Signaling Technology), phospho-ACC (Ser 79, which also detects Ser 212 in ACC2, the predominant ACC isoform in SkM) (#3661S, Cell Signaling Technology) and pan 14-3-3 (#sc-629, Santa Cruz Biotechnology). All antibodies were used at a dilution of 1:1000. A common loading control was included on every gel to account for variation in relative band intensities between different blots. Antibody-antigen binding was detected using ECL Reagent (GE Healthcare) and imaged on a Fujifilm Las-4000 CCD camera. Bands were quantified by densitometry with Fuji ImageQuantTL software. Full images of blots in Fig. 6 are shown in Supplementary Figure 12.
Western blots for phospho-AMPK (Thr172), total AMPK, phospho-ACC (Ser79), and total
ACC in vehicle- or P053-treated mice on a chow or HFD. Denistometry for phospho-
AMPK/total AMPK and phospho-ACC/total ACC is shown (n = 10 mice per group).
(1 picture or pasted object on this page, not shown here)

[2] = Plasma P053 concentration after oral dosing, LC-MS/MS; assay type: in vivo, mice
Experimental: Plasma samples (20 μL) were extracted with 200 μL methanol containing 20 pmoles AAL(S)[27] as the internal standard. The mixtures were vortexed, then sonicated in ice water using a Bioruptor (Diagenode) for 2 min at 30 s intervals. Extracts were centrifuged at 1400 rpm for 20 min, 4 °C, to clear debris. Supernatants were transferred to 5 mL glass tubes. The remaining insoluble material was re-extracted with 1 mL 80% methanol as above, and the supernatant combined with the first extract. The extracts were evaporated under vacuum (Savant SC210 SpeedVac, Thermo Scientific). Dried extracts were reconstituted in 200 μL of 80% methanol/0.2% formic acid and stored at −20 °C. On the day of analysis, the extracts were vortexed thoroughly and centrifuged at 300 × g for 20 min before transferring 100 μL of the supernatant to glass HPLC vials.
LC-MS/MS was performed on a TSQ Quantum Access triple quadrupole mass spectrometer in positive ion mode, coupled to an Accela UPLC system (Thermo Scientific). Extracts (20 μL) were separated on a 2 × 100 mm Eclipse XDB-C8 column with 1.8 μm particle size (Agilent Technologies), using a 7.5 min binary HPLC gradient: 0 min, 70% B ([…]); 1.5 min, 70% B; 3.5 min, 95% B; 4 min, 95% B; 4.5 min, 70% B; 7.5 min 70% B. Mobile phase A: 2 mM ammonium formate/1% formic acid in water; mobile phase B: 1 mM ammonium formate/1% formic acid in methanol. The flow rate was 0.4 mL min^−1, increasing to 0.5 mL min^−1 from 5–7 min, and column oven 30 °C. […] Visualisation and quantification of peaks was performed using Thermo Fisher’s XCalibur software v2.2.

[3] = tested on: C57BL6/J mice; assay: Hyperinsulinemic-euglycemic clamps; assay type: in vivo; conditions: 5 mg/kg, chow or HFD
Experimental: At 5 weeks of diet/drug treatment, mice underwent surgery to implant catheters into the left carotid artery and right jugular vein. Catheters were flushed every 1–2 days with heparinised saline to maintain patency. Approximately 6–8 days post surgery, and after a ~5 h fast, a hyperinsulinemic-euglycemic clamp was conducted. Mice were conscious, unrestrained and were not handled during the procedure to minimize stress. At −90 min, a primed (5 μCi) continuous infusion (0.05 μCi/min) of [3,^3H]-glucose (PerkinElmer) was commenced. Samples were collected at −30, −20, −10 and 0 min for basal glucose turnover (Rd) determination. […] Once blood glucose was stable, four sequential samples were taken to determine insulin-stimulated glucose turnover. A bolus of 2[^14C]deoxyglucose (10 μCi; PerkinElmer) was then administered and blood sampled at 2, 5, 10, 15, 20 and 30 min, prior to collection of muscles for determination of glucose uptake.

| Structure (SMILES) | melting point [°C] | phosphorylation of AMPK or acetyl-CoA carboxylase (ACC) [1] | protein expression of Pgc-1α [1] | respiratory complexes at the protein level [1] | concentration at 6 weeks ([2]; C57BL6/J, mouse, plasma, oral, 5 mg/kg/day for 6 weeks) [nM] | half-life ([2]; C57BL6/J, mouse, plasma, single 5 mg/kg dose by oral gavage) [h] | Tmax ([2]; C57BL6/J, mouse, plasma, single 5 mg/kg dose by oral gavage, read-out: time of maximal plasma concentration) [h] | maximal plasma concentration ([2]; single 5 mg/kg dose by oral gavage) [nM] | glucose infusion rate, peripheral glucose disposal, insulin-stimulated glucose uptake in SkM [3] |
| --- | --- | --- | --- | --- | --- | --- | --- | --- | --- |
| C[C@@](N)(CO)CCc1ccc(OCc2ccccc2)cc1 [G024, (2S)-2-amino-4-(4′-benzyloxyphenyl)-2-methyl-1-butanol] | 196.7 to 197.6 | – | – | – | – | – | – | – | – |
| C[C@@](N)(CO)CCc1ccc(OCc2ccc(Cl)c(Cl)c2)cc1 [P053, (S)-2-amino-4-(4-(3,4-dichlorobenzyloxy)phenyl)-2-methylbutan-1-ol] | – | no effect | significantly increased | up-regulated | ~300 | 28 | 4 | 20 | no impact |

— paper PMC6104039 (Nature Communications, 2018)
